In the test the target is T1, Human TRPC6 (Homo sapiens, UniProt Q9Y210).
T1 construct: expressed in transfected cells
T1 sequence (Q9Y210 1-931): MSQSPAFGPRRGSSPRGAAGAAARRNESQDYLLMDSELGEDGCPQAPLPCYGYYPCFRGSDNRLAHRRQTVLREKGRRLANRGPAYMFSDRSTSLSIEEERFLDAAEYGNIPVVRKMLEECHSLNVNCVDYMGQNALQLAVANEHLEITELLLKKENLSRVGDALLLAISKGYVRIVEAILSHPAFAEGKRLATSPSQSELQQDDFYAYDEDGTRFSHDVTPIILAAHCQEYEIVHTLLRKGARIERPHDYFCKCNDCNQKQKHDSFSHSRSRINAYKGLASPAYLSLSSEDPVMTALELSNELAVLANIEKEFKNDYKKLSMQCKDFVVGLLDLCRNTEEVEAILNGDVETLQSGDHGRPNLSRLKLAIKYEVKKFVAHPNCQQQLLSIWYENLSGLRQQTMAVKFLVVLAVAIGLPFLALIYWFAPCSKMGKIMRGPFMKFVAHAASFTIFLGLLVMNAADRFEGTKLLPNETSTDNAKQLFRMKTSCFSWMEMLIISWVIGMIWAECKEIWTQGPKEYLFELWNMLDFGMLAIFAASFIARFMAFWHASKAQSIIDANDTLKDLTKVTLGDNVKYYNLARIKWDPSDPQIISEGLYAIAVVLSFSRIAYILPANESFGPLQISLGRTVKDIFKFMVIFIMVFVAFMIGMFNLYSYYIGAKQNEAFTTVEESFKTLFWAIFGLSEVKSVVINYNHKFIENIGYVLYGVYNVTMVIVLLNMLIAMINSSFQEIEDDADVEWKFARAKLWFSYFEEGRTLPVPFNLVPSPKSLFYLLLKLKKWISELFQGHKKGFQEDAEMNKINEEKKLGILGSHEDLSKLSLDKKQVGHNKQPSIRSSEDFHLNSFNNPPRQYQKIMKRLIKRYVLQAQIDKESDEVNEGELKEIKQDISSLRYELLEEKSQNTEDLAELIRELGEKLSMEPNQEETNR
The test can be described thus: Evaluation of TRPC6 channel inhibitory activity (1), FLIPR Calcium 5 Assay Kit, OAG stimulation (Compound Nos. 1-1293). As to conditions: Human TRPC6 stably-expressing cells, OAG 30 μM, FLIPR Calcium 5 Assay Kit; read-out: Inhibitory activity (pIC50 class) (converted). Type of test: cell-based. An outline of the steps: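 Cells stably expressing human TRPC6, plated 24 h before, were loaded 30 min with Calcium 5 dye plus probenecid in HEPES-HBSS. Compound was added 20 min before OAG (30 μM final) and fluorescence tracked on FLIPR. Inhibition normalised to no-compound and no-compound/no-OAG wells; pIC50 from four-parameter fit, reported as +/++/+++ categories.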
Regarding `Cc1cc(Oc2cc(C#N)ccc2-c2ncc(CCN)cn2)cc(N2CCNC(=O)C2)n1` [compound 455, 4-[5-(2-aminoethyl)pyrimidin-2-yl]-3-[2-methyl-6-(3-oxopiperazin-1-yl)pyridin-4-yl]oxybenzonitrile], the IC50 was greater than 1000 nM.

Turning to `Cc1nc(Oc2cc(C#N)ccc2-c2ccc(N3CCN(C)CC3)cc2)cc(N2CCOCC2)n1` [Compound 10, 3-(2-methyl-6-morpholin-4-ylpyrimidin-4-yl)oxy-4-[4-(4-methylpiperazin-1-yl)phenyl]benzonitrile], the IC50 was greater than 1000 nM.

On to `Cc1nc(Oc2cc(C#N)ccc2-c2ccc([C@H](O)CN)cn2)cc(N2CCO[C@@H](C)C2)n1` [compound 558, 4-[5-[(1S)-2-amino-1-hydroxyethyl]pyridin-2-yl]-3-[2-methyl-6-[(2S)-2-methylmorpholin-4-yl]pyrimidin-4-yl]oxybenzonitrile], for which the IC50 was 10 to 1000 nM.

For `Cc1nc(Oc2cc(C#N)ccc2-c2ncc(CCN)cn2)cc(N2CCC2=O)n1` [compound 855, 4-[5-(2-aminoethyl)pyrimidin-2-yl]-3-[2-methyl-6-(2-oxoazetidin-1-yl)pyrimidin-4-yl]oxybenzonitrile], the IC50 was 10 to 1000 nM.

For `CC(C)n1nc(C2CC2)cc1Oc1cc(C#N)ccc1-c1ncc([C@H](O)CN)cn1` [compound 408, 4-[5-[(1S)-2-amino-1-hydroxyethyl]pyrimidin-2-yl]-3-(5-cyclopropyl-2-propan-2-ylpyrazol-3-yl)oxybenzonitrile], the IC50 was 10 to 1000 nM.

In the case of `CC(C)c1cc(Oc2cc(C#N)ccc2-c2ncc(CN)cn2)n(C)n1` [compound 364, 4-[5-(aminomethyl)pyrimidin-2-yl]-3-(2-methyl-5-propan-2-ylpyrazol-3-yl)oxybenzonitrile], the IC50 was less than 10 nM.

For the compound `Cn1nc(N2CC(F)(F)C(F)(F)C2)cc1Oc1cc(C#N)ccc1-c1ncc(CCN)cn1` [compound 877, 4-[5-(2-aminoethyl)pyrimidin-2-yl]-3-[2-methyl-5-(3,3,4,4-tetrafluoropyrrolidin-1-yl)pyrazol-3-yl]oxybenzonitrile], the IC50 is less than 10 nM.

Consider `Cc1cc(Oc2cc(C#N)ccc2-c2ncc([C@H](O)CN)cn2)cc(-c2ncc(C)s2)n1` [compound 601, 4-[5-[(1S)-2-amino-1-hydroxyethyl]pyrimidin-2-yl]-3-[2-methyl-6-(5-methyl-1,3-thiazol-2-yl)pyridin-4-yl]oxybenzonitrile], for which the IC50 was 10 to 1000 nM.

Take `Cn1nc(C(C)(C)C)cc1C(O)c1cc(C#N)ccc1-c1ncc(CN)cn1` (stereo not shown) [compound 1234, 4-[5-(aminomethyl)pyrimidin-2-yl]-3-[(5-tert-butyl-2-methylpyrazol-3-yl)-hydroxymethyl]benzonitrile]: the IC50 is less than 10 nM.

As for `Cn1nc(-c2ccccn2)cc1Oc1nc(C#N)ccc1-c1ncc(CN)cn1` [compound 1283, 5-[5-(aminomethyl)pyrimidin-2-yl]-6-(2-methyl-5-pyridin-2-ylpyrazol-3-yl)oxypyridine-2-carbonitrile], the IC50 is greater than 1000 nM.

With `Cc1nc(Sc2cc(C#N)ccc2-c2ncc(CN)cn2)cc(N2CCCC2)n1` [compound 1262, 4-[5-(aminomethyl)pyrimidin-2-yl]-3-(2-methyl-6-pyrrolidin-1-ylpyrimidin-4-yl)sulfanylbenzonitrile], the IC50 was greater than 1000 nM.

For `CN(C(=O)C1CCNCC1)c1ccc(-c2ccc(C#N)cc2Oc2cc(C3CC3)nn2C)nc1` [compound 782, N-[6-[4-cyano-2-(5-cyclopropyl-2-methylpyrazol-3-yl)oxyphenyl]pyridin-3-yl]-N-methylpiperidine-4-carboxamide], the IC50 was greater than 1000 nM.

Regarding `Cn1nc(-c2ccccn2)cc1Oc1cc(C#N)ccc1-c1nccc(CN)n1` [compound 682, 4-[4-(aminomethyl)pyrimidin-2-yl]-3-(2-methyl-5-pyridin-2-ylpyrazol-3-yl)oxybenzonitrile], the IC50 was 10 to 1000 nM.

As for `Cc1nc(C(=O)c2cc(F)ccc2-c2ncc(CCN)cn2)cc(N2CCOCC2)n1` [compound 1103, [2-[5-(2-aminoethyl)pyrimidin-2-yl]-5-fluorophenyl]-(2-methyl-6-morpholin-4-ylpyrimidin-4-yl)methanone], the IC50 is 10 to 1000 nM.

As to `Cc1nc(-c2ccccc2F)cn1Cc1cc(C#N)ccc1-c1ccc(CCN)cn1` [compound 1152, 4-[5-(2-aminoethyl)pyridin-2-yl]-3-[[4-(2-fluorophenyl)-2-methylimidazol-1-yl]methyl]benzonitrile], the IC50 is less than 10 nM.

For the compound `Cc1nn(CC(C)(C)C)cc1Oc1cc(C#N)ccc1-c1ncc(CCN)cn1` [compound 937, 4-[5-(2-aminoethyl)pyrimidin-2-yl]-3-[1-(2,2-dimethylpropyl)-3-methylpyrazol-4-yl]oxybenzonitrile], the IC50 was less than 10 nM.

As for `Cn1nc(C(F)(F)F)cc1Oc1cc(C#N)ccc1-c1ccc(CCN)cn1` [Compound 264, 4-[5-(2-aminoethyl)pyridin-2-yl]-3-[2-methyl-5-(trifluoromethyl)pyrazol-3-yl]oxybenzonitrile], the IC50 was less than 10 nM.

Take `CC(C)Nc1cc(Oc2cc(C#N)ccc2-c2ccc(CCN)cn2)n(C)n1` [compound 575, 4-[5-(2-aminoethyl)pyridin-2-yl]-3-[2-methyl-5-(propan-2-ylamino)pyrazol-3-yl]oxybenzonitrile]: the IC50 is less than 10 nM.

Take `Cn1nc(N2CCOCC2)cc1Oc1cc(F)ccc1-c1ccc(CCN)cn1` [compound 975, 2-[6-[4-fluoro-2-(2-methyl-5-morpholin-4-ylpyrazol-3-yl)oxyphenyl]pyridin-3-yl]ethanamine]: the IC50 is less than 10 nM.

For `Cn1nc(-c2ccccn2)cc1Oc1cc(C#N)ccc1-c1cnc(CN)s1` [compound 608, 4-[2-(aminomethyl)-1,3-thiazol-5-yl]-3-(2-methyl-5-pyridin-2-ylpyrazol-3-yl)oxybenzonitrile], the IC50 was greater than 1000 nM.

For the compound `CCc1cc(Oc2cc(C#N)ccc2-c2ncc(OCCN)cn2)n(C)n1` [compound 386, 4-[5-(2-aminoethoxy)pyrimidin-2-yl]-3-(5-ethyl-2-methylpyrazol-3-yl)oxybenzonitrile], the IC50 is 10 to 1000 nM.

Regarding `Cc1c(C(=O)c2cc(C#N)ccc2-c2ncc(CCN)cn2)cnn1CC1CC1` [compound 1034, 4-[5-(2-aminoethyl)pyrimidin-2-yl]-3-[1-(cyclopropylmethyl)-5-methylpyrazole-4-carbonyl]benzonitrile], the IC50 was 10 to 1000 nM.

As for `N#Cc1ccc(-n2cc(CCN)cn2)c(Sc2cnnc(N3CCCCC3)c2)c1` [Compound No. 1246, 4-[4-(2-Aminoethyl)pyrazol-1-yl]-3-(6-piperidin-1-ylpyridazin-4-yl)sulfanylbenzonitrile], the IC50 was 10 to 1000 nM.

With `Cn1nc(C(C)(C)C)cc1C(OCC#N)c1cc(C#N)ccc1-c1ncc(CCN)cn1` (stereo not shown) [Compound No. 1237, 4-[5-(2-Aminoethyl)pyrimidin-2-yl]-3-[(5-tert-butyl-2-methylpyrazol-3-yl)-(cyanomethoxy)methyl]benzonitrile], the IC50 is less than 10 nM.

For `Cc1c(Oc2cc(C#N)ccc2-c2ncc(CCN)cn2)cnn1C(C)C` [compound 806, 4-[5-(2-aminoethyl)pyrimidin-2-yl]-3-(5-methyl-1-propan-2-ylpyrazol-4-yl)oxybenzonitrile], the IC50 is 10 to 1000 nM.

For the origin of these results see patent publication US20230167073A1 (Teijin Pharma Limited, priority 2020, published 2023).
